Measured values: patent US20240376109A1, “PYRAZOLO[1,5-A]PYRIMIDINE COMPOUND FOR THE TREATMENT OF DERMAL DISORDERS” (OTSUKA PHARMACEUTICAL CO., LTD., priority 2021, published 2024)
pIC50: −log10 of the molar value. Where two headings read alike, the source gives them in different places.

Assays:
PAR2 = target: T1, PAR2 (Homo sapiens, UniProt P55085); test: Intracellular calcium concentration measurement (SLIGKV-NH2-induced calcium change, Fluo-8, FDSS/μCELL); assay type: cell-based; settings: for pIC50: HEK293 cells, SLIGKV-NH2 10 μM-induced intracellular calcium change, read-out: IC50
T1 construct: HEK293 cell lines derived from human embryonic kidney cultured in a MEM culture medium; endogenous in cells; host or cells: HEK293
T1 sequence (P55085 26-397): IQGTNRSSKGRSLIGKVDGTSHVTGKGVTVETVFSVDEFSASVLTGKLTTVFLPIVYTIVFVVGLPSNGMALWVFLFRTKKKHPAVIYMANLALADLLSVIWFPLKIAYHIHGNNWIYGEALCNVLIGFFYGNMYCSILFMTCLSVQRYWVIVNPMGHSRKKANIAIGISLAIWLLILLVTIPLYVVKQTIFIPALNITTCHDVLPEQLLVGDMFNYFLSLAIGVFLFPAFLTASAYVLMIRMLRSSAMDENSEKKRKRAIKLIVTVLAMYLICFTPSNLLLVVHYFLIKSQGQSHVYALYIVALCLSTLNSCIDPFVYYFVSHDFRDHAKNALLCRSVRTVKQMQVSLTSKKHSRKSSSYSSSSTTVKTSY

ICR mice = test: Scratching behavior test with PAR2 agonist peptide (SLIGRL-NH2) administration; assay type: in vivo, mouse; settings: 40 μL of 6% test compound solution applied to back, SLIGRL-NH2 intradermal, scratching counted 10 to 40 minutes after
Description: Test Example 2: Scratching Behavior Test with PAR2 Agonist Peptide Administration
Magnets for measuring scratching behavior(Neuroscience, Inc.) were implanted in both legs of 6- to 7-week-old female ICR mice under 3.5% isoflurane inhalation anesthesia.
Under isoflurane inhalation anesthesia, the upper back was shaved about 2×3 cm with a shaver and 40 μL of a 6% of test compound solution was applied with a micropipette. The animals were then kept in a dedicated cage for 1 hour. […] Then, under isoflurane inhalation anesthesia, 10 μL of a 25 mg/mL solution of PAR2 agonist peptide (SLIGRL-NH2) in distilled water was administered intradermally by using a needle attached to a Hamilton syringe. The animals were returned to the cage and the scratching frequency was measured by the device for 30 minutes from 10 to 40 minutes after the administration.
The inhibitory effect of the test compounds on scratching behavior was calculated as a percentage of the number of scratches in the solvent-applied and PAR2 agonist peptide-treated group, and is shown in Table 4 as a percentage.

pIC50 (PAR2) | Compound | further results
6.64 | CC1(C)CNCCCN1C(=O)c1cc2nc(C34CC5CC(CC(C5)C3)C4)cc(C(F)(F)F)n2n1 [Example 110] | scratching-behavior inhibition rate (ICR mice; solvent Acetone/methanol (1:1)): 25%
6.45 | O=C(c1cc2nc(C3CCCCC3)cc(C(F)(F)F)n2n1)N1CCCCCC1 [Example 54] | scratching-behavior inhibition rate (ICR mice; solvent Acetone/methanol (1:1)): 25%
7.51 | CC(C)c1cc(C23CC4CC(CC(C4)C2)C3)nc2cc(C(=O)N3CCCCC3(C)C)nn12 [Example 2] | scratching-behavior inhibition rate (ICR mice; solvent 100% ethanol): 46%
6.39 | CC1(C)CNCCN1C(=O)c1cc2nc(C34CC5CC(CC(C5)C3)C4)cc(C(F)(F)F)n2n1 [Example 53, [5-(1-adamantyl)-7-(trifluoromethyl)pyrazolo[1,5-a]pyrimidin-2-yl]-(2,2-dimethylpiperazin-1-yl)methanone] | scratching-behavior inhibition rate (ICR mice; solvent Acetone/methanol (1:1)): 44%
6.45 | CC(C)c1cc(C23CC4CC(CC(C4)C2)C3)nc2cc(C(=O)N3CCNCC3(C)C)nn12 [Example 59] | scratching-behavior inhibition rate (ICR mice; solvent Acetone/methanol (1:1)): 28%
7.08 | CC1(C)CCN(C(=O)c2cc3nc(CC4CCCC4)cc(C(F)(F)F)n3n2)C(C)(C)C1=O [Example 105] | scratching-behavior inhibition rate (ICR mice; solvent 100% ethanol): 27%
6.93 | CC(C)c1cc(C2CCCCC2)nc2cc(C(=O)N3CCCCC3(C)C)nn12 [Example 32] | scratching-behavior inhibition rate (ICR mice; solvent 100% ethanol): 41%
7.29 | CCC(CC)c1cc(CC2CCCC2)nc2cc(C(=O)N3CCC(C)(C)C(=O)C3(C)C)nn12 [Example 70] | scratching-behavior inhibition rate (ICR mice; solvent 100% ethanol): 33%
6.94 | CC(C)c1cc(CC2CCCC2)nc2cc(C(=O)N3CCC(C)(C)C(=O)C3(C)C)nn12 [Example 71] | scratching-behavior inhibition rate (ICR mice; solvent 100% ethanol): 27%
6.97 | CC1(C)CCCCN1C(=O)c1cc2nc(C3CCCCC3)cc(C(F)(F)F)n2n1 [Example 65] | scratching-behavior inhibition rate (ICR mice; solvent 100% ethanol): 27%
6.77 | CC(C)c1cc(CC2CCCC2)nc2cc(C(=O)N3CCCC(O)C3(C)C)nn12 (stereo not drawn) [Example 117] | scratching-behavior inhibition rate (ICR mice; solvent 100% ethanol): 34%
7.06 | CCC(CC)c1cc(CC2CCCCC2)nc2cc(C(=O)N3CCCCCC3)nn12 [Example 37] | scratching-behavior inhibition rate (ICR mice; solvent 100% ethanol): 30%
6.32 | O=C(c1cc2nc(CC3CCCCC3)cc(C3CCC3)n2n1)N1CCCCCC1 [Example 137] | –
6.62 | CC1(C)COCCN1C(=O)c1cc2nc(CC3CCCCC3)cc(C(F)(F)F)n2n1 [Example 66] | –
7.13 | CCCc1cc(CC2CCCCC2)nc2cc(C(=O)N3CCCCCC3)nn12 [Example 9, azepan-1-yl(5-(cyclohexylmethyl)-7-propylpyrazolo[1,5-a]pyrimidin-2-yl)methanone] | –
6.56 | CC(F)(F)c1cc(CC2CCCCC2)nc2cc(C(=O)N3CCCCCC3)nn12 [Example 77] | –
6.87 | CCc1cc(CC2CCCCC2)nc2cc(C(=O)N3CCCCCCC3)nn12 [Example 146] | –
6.83 | CC(C)c1cc(C2CC23CCCCC3)nc2cc(C(=O)N3CCCCCC3)nn12 (stereo not drawn) [Example 151] | –
7.82 | CCC(CC)c1cc(CC2CCCC2)nc2cc(C(=O)N3CCCC(=O)C3(C)C)nn12 [Example 68] | –
6.79 | CCc1cc(CC2CCCCCC2)nc2cc(C(=O)N3CCCCCCC3)nn12 [Example 147] | –

pIC50 (PAR2) | Compound | further results
6.63 | O=C(c1cc2nc(C3CCCCCC3)cc(C(F)(F)F)n2n1)N1CCCCCC1 [Example 60] | –
6.61 | O=C(c1cc2nc(CC3CCCC3)cc(C(F)(F)F)n2n1)N1CCCCCCCC1 [Example 41] | –
6.50 | CC(C)c1cc(C2CC3CCC2C3)nc2cc(C(=O)N3CCCCCC3)nn12 (stereo not drawn) [Example 157] | –
6.68 | CCC(C)c1cc(CC2CCCCCC2)nc2cc(C(=O)N3CCCCCC3)nn12 (stereo not drawn) [Example 149] | –
7.48 | CCC(CC)c1cc(CC2CCCCC2)nc2cc(C(=O)N3CCC(O)CC3(C)C)nn12 (stereo not drawn) [Example 73] | –
6.59 | CC(C)c1cc(CC2CCCCC2)nc2cc(C(=O)N3CCSCC3)nn12 [Example 125] | –
6.68 | CC(C)c1cc(CC2CCCC2)nc2cc(C(=O)N3CCCCCCC3)nn12 [Example 51] | –
6.93 | CC(C)c1cc(CC2CCCCC2C)nc2cc(C(=O)N3CCCCCC3)nn12 (stereo not drawn) [Example 158] | –
6.71 | CC1CCC(Cc2cc(C(C)C)n3nc(C(=O)N4CCCCC4)cc3n2)CC1 (stereo not drawn) [Example 132] | –
6.40 | CC(C)c1cc(C2C3CCCCC32)nc2cc(C(=O)N3CCCCCC3)nn12 (stereo not drawn) [Example 159] | –
6.13 | O=C(c1cc2nc(N3CCCCC3)cc(C(F)(F)F)n2n1)N1CCCCCC1 [Example 95] | –
7.02 | CCC(CC)c1cc(CC2CCCC2)nc2cc(C(=O)N3CCC(O)CC3(C)C)nn12 (stereo not drawn) [Example 106] | –
6.92 | CC(C)c1cc(CC2CCCCC2)nc2cc(C(=O)N3CCOCC3(C)C)nn12 [Example 76] | –
6.28 | CC(C)c1cc(CC2CCCCC2)nc2cc(C(=O)N3CCCCCO3)nn12 [Example 91] | –
6.51 | CC1(c2cc(C(F)(F)F)n3nc(C(=O)N4CCCCCC4)cc3n2)CCCCC1 [Example 57] | –
6.77 | CC(C)c1cc(CC2CCCCC2)nc2cc(C(=O)N3CCCC(F)(F)CC3)nn12 [Example 142] | –
7.07 | CC1CCC(Cc2cc(C(C)C)n3nc(C(=O)N4CCCCC4(C)C)cc3n2)CC1 (stereo not drawn) [Example 109] | –
7.02 | CC1(C)CCCCCN1C(=O)c1cc2nc(C34CC5CC(CC(C5)C3)C4)cc(C(F)(F)F)n2n1 [Example 61] | –
7.11 | CC1(C)CSCCN1C(=O)c1cc2nc(CC3CCCC3)cc(C(F)(F)F)n2n1 [Example 108] | –
7.37 | CC(C)c1cc(CC2CCCCC2)nc2cc(C(=O)N3CCSCC3(C)C)nn12 [Example 50] | –

pIC50 (PAR2) | Compound | further results
7.62 | Cc1cc(CC2CCC(C)CC2)nc2cc(C(=O)N3CCCCCC3)nn12 (stereo not drawn) [Example 20] | –
6.58 | CC(C)c1cc(CC2CCCCC2)nc2cc(C(=O)N3CCCCC3)nn12 [Example 140] | –
6.51 | O=C(c1cc2nc(C34CCC(CC3)CC4)cc(C(F)(F)F)n2n1)N1CCCCCC1 [Example 85] | –
6.84 | CCC(C)c1cc(CC2CCCCC2)nc2cc(C(=O)N3CCCCC3(C)C)nn12 (stereo not drawn) [Example 124] | –
6.41 | CCCN(C)c1cc(CC2CCCCC2)nc2cc(C(=O)N3CCCCCC3)nn12 [Example 135] | –
7.10 | O=C(c1cc2nc(CC34CC5CC(CC(C5)C3)C4)cc(C(F)(F)F)n2n1)N1CCCCCC1 [Example 26] | –
7.92 | COC1CCN(C(=O)c2cc3nc(C45CC6CC(CC(C6)C4)C5)cc(C(F)(F)F)n3n2)C(C)(C)C1 (stereo not drawn) [Example 63] | –
6.99 | CC1(C)CCCCN1C(=O)c1cc2nc(CC3CCCC3)cc(C(F)(F)F)n2n1 [Example 30] | –
6.75 | COC1(C)CCCN(C(=O)c2cc3nc(CC4CCCCC4)cc(C(C)C)n3n2)C1(C)C (stereo not drawn) [Example 122] | –
7.64 | CC1(C)C(O)CCCN1C(=O)c1cc2nc(C34CC5CC(CC(C5)C3)C4)cc(C(F)(F)F)n2n1 (stereo not drawn) [Example 100] | –
8.00 | CC1(C)C(=O)CCCN1C(=O)c1cc2nc(C34CC5CC(CC(C5)C3)C4)cc(C(F)(F)F)n2n1 [Example 96] | –
6.74 | CC(C)Cc1cc(CC2CCCCC2)nc2cc(C(=O)N3CCCCCC3)nn12 [Example 40] | –
8.05 | CC1(C)CCCCN1C(=O)c1cc2nc(C34CC5CC(CC(C5)C3)C4)cc(C(F)(F)F)n2n1 [Example 24] | –
6.20 | CC(C)c1cc(CC2CCC2)nc2cc(C(=O)N3CCCCCC3)nn12 [Example 45] | –
6.99 | CCC(C)c1cc(CC2CCCC2)nc2cc(C(=O)N3CCCCCC3)nn12 (stereo not drawn) [Example 38] | –
6.68 | C=C1CCCN(C(=O)c2cc3nc(CC4CCCC4)cc(C(C)C)n3n2)C1(C)C [Example 129] | –
– | O=C(c1cc2nc(NC34CC5CC(CC(C5)C3)C4)cc(C(F)(F)F)n2n1)N1CCCCCC1 [Example 82] | IC50 (PAR2; IC50 (nM)): 76 nM
6.58 | COC1CCN(C(=O)c2cc3nc(CC4CCCC4)cc(C(F)(F)F)n3n2)C(C)(C)C1 (stereo not drawn) [Example 113] | –
6.56 | O=C(c1cc2nc(C3C4CC5CC(C4)CC3C5)cc(C(F)(F)F)n2n1)N1CCCCCC1 (stereo not drawn) [Example 84] | –

Compound | pIC50 (PAR2) | further results
CC(C)c1cc(CC2CCCC2)nc2cc(C(=O)N3CCSCC3(C)C)nn12 [Example 18] | 7.44 | scratching-behavior inhibition rate (ICR mice; solvent 100% ethanol): 39%
CCCc1cc(CC2CCCC2)nc2cc(C(=O)N3CCCCCC3)nn12 [Example 16] | 6.59 | scratching-behavior inhibition rate (ICR mice; solvent 100% ethanol): 47%
CCC(CC)c1cc(CC2CCCC2)nc2cc(C(=O)N3CCCCC3(C)C)nn12 [Example 13] | 7.16 | scratching-behavior inhibition rate (ICR mice; solvent 100% ethanol): 37%
CCCCCc1cc(C23CC4CC(CC(C4)C2)C3)nc2cc(C(=O)N3CCCCCC3)nn12 [Example 133] | 6.44 | –
